This is an account of results in patent publication US6462066B2, “Method and composition for treatment of ischemic neuronal reperfusion injury” (University of South Florida, priority 1999, dated 2002).

Series [1] can be described thus: Serum level of dantrolene in the patient of Example 2. Type of series: in vivo, human. The note with it: Example 2 patient. On the procedure: (§1) He is placed on intravenous dantrolene, 2 mg/kg body weight q 2 hourly×3 followed q 8 hourly. In addition, […] is placed on solumedrol, 250 mg q 6 hourly. […] visual acuity fields are recorded on a daily basis. On day 3 dantrolene treatment is changed from intravenous to oral 500 mg po tid. On day 4 color vision is restored and on day 5 all treatment is stopped.
The serum level of dantrolene is 14×10^−6 gm/mL on day 4, and 15×10^−6 gm/mL on day 2.

A further series has as its system excitotoxic damage. As to conditions: stated as known; cited from earlier work.
The nature of series [2]: Dantrolene treatment of the patient of Example 2 (post-operative bilateral ischemic optic neuropathy), visual acuity and visual fields. The class given is in vivo, human. As to conditions: Example 2 patient. On the procedure:
Their past medical history is significant for an episode of hyperglycemia approximately 45 years previously. They have been a non-smoker for the last 20 years, and prior to that they were a heavy smoker.
The operation lasts for approximately 10 hours. They are under general anesthesia for the duration of the operation. The estimated blood loss is 2200 mL during the operation, of which 1200 mL is replaced via a cell saver, and an additional 2 units of blood is given along with crystalloids. Their blood pressure drops once during the operation to 89 mm Hg. Before the surgery they are able to read with glasses. […] Strong venous pulsations are seen at the optic disc of the left eye. A diagnosis of bilateral ischemic optic neuropathy is made.
as §1

A short description of series [3]: Dantrolene treatment of the patient of Example 1 (post-operative bilateral ischemic optic neuropathy), visual acuity and visual fields. The note with it: Example 1 patient. Type of series: in vivo, human. On the procedure: A patient undergoes back surgery lasting 8 hours and, upon awakening after 16 hours, complains of not being able to see from their left eye. The surgery had lasted 8 hours, and 1 unit of blood had been lost. During surgery, their systolic blood pressure had dropped to 80 mm Hg. […] They are a contact lens wearer. previously having a corrected visual acuity of 20/20 bilaterally.
There is a relative afferent pupillary defect on the left. They have a sizeable loss of their right visual field, which is illustrated in FIGS. 2A and 2B. […] Both pupils are reactive, varying in diameter from 3.0 to 3.5 mm.
Their extra-ocular muscle movements, intraocular pressures, and anterior segment exam, are within normal limits. […] The right optic disc is of normal color. […] It is pulsatile, and each time a pulse occurs, it jumps away from the optic disc. This can be clearly seen with a 90 diopter lens and a portable Kowa slit lamp, or with a 20 diopter lens and a Keeler indirect opthalmoscope. The retina appears normal in both eyes. […] A clinical diagnosis of posterior ischemic optic neuropathy with resultant field defect and pending loss of vision in the right eye is also made. MRI of the optic nerves confirms these diagnoses. Bilateral swelling of the optic nerves is seen behind the optic discs. The swelling is more marked in the left optic nerve than in the right. MRI confirms that they have a swollen optic left nerve. A diagnosis of bilateral ischemic optic neuropathy is made: the blood supply to the left eye has been occluded, and the same process is occurring in the right eye. Just prior to discovering their loss of sight, their serum calcium is low, and the nurse administers intravenous calcium.
To prevent compression of the blood supply in the right eye, the patient is given high dosed pulsed steroids. However, excitotoxic damage of the retina from reperfusion injury is almost certain in the absence of the treatment of the present invention.
The patient is administered 2 gm solumedrol, and then 1 gm every 6 hours. Dantrolene is administered at 2 mg/kg every 2 hours for three treatments, and then 1 mg/kg every 8 hours.

Consider `O=C1CN(/N=C/c2ccc(-c3ccc([N+](=O)[O-])cc3)o2)C(O)=N1` [Dantrolene], for which the “serum level of dantrolene” value in series [1] (day 2 (intravenous dantrolene)) is 15×10^−6 gm/mL; in series [1] (day 4 (oral 500 mg po tid from day 3)) it was 14×10^−6 gm/mL. The “excitotoxic damage in an animal seizure model” value in the series with excitotoxic damage is on record as “prevents excitotoxic damage”. In series [2] (16 hours postoperatively, intravenous dantrolene 2 mg/kg q 2 hourly x3 then q 8 hourly, with solumedrol, baseline no light perception in either eye), the “visual acuity with glasses” value is recorded as “counting fingers OU in the superior visual fields”. For the same molecule, in series [2] (day 4), the color vision result was “restored”. Also, the “vision of the left eye” value is “light perception” in series [3] (24 hours after initiation of treatment, baseline no perception of light) and “starts to perceive hand movement” in series [3] (72 hours after treatment). Besides, in series [3] (24 hours later, dantrolene 2 mg/kg every 2 hours x3 then 1 mg/kg every 8 hours, with solumedrol, baseline uncorrected 20/70), the “corrected visual acuity in the right eye” value was 20/30. Besides, in series [3] (by the fifth day, baseline 20/70), the “uncorrected visual acuity in the right eye” value is listed as 20/50. Further, in series [3] (right eye, at the fifth day (lessens from 48 hours after starting treatment)), the inferior field loss result is on record as “none”. Besides, the “corrected visual acuity in the left eye at distance” value in series [3] (two months after discharge) is on record as “counting fingers”. In addition, the “corrected visual acuity in the left eye at near distance” value in series [3] (two months after discharge) was 20/800.
